Assay results from US4372948A, “Derivative of saccharide and physiologically active agent containing the same” (Kureha Kagaku Kogyo Kabushiki Kaisha, priority 1980, dated 1983).

Legend:
[1] = test system: pyrexia (Saccharomyces cerevisiae); assay: Anti-pyrexia activity (yeast-induced); format: in vivo; conditions: Rattus norvegicus, oral, read-out: Rate of inhibiting pyrexia (I.R.)
Experimental: Following the method of Winter et al. (1961), an aqueous dispersion of 20% by weight of Saccharomyces cerevisiae was subcutaneously injected into groups of rats, each group consisting of 6 animals, and after 10-hour fasting, 1000 mg/kg of each of the present compounds was orally administered to the rat as a solution of dispersion in distilled water, and then the rectal temperature of the rat was measured at a predetermined interval of time to find the lowest temperature.
The anti-pyrexia activity of each compound was obtained from the following formula: […]
Anti-pyrexia activity represented by the rate of inhibition (I.R.)
C2 represents the average rectal temperature of negative control (non-treatment), not injected with the yeast and not administered with the present compound,
C1 represents the average temperature of positive control, injected with the yeast and not administered with the compound and T represents the temperature of tested animals, injected with the yeast and administered with the present compound.

[2] = test system: cotton pellet granuloma; assay: Anti-granuloma activity (cotton pellet); format: in vivo, rat; conditions: Rattus norvegicus, po, 192 h, 7 days, read-out: I.R. against cotton pellet edema
Experimental: Following the method of Winter et al. (1963), each two cotton wool pellets, each weighing 30±1 mg, were implanted into the back of each rats of groups of rats, each group consisting of 6 animals, at the positions of mutually symmetrical concerning the median line of the rat. To these groups of the thus operated rats, the present compounds were respectively administered orally and forcibly as a solution or dispersion in distilled water for 7 continuous days, once a day at a dose of 1000 mg/kg/day. On 8th day of the implantation, the granuloma was extirpated and the dry weight of the granuloma was measured, the rate of inhibiting the proliferation of granuloma being obtained as in (5-1) being shown in Table 8.

[3] = test system: acetic acid writhing; assay: Analgetic activity against chemical stimulation of acetic acid (writhing); format: in vivo, mouse (ICR female); conditions: Mus musculus, po, 30 min before 0.6% acetic acid, read-out: I.R. of writhing
Excerpt: (§1) Rate of inhibition (I.R.) (%)=(1-T/C)×100
T represents the average number of writhing of the group of mice administered with the present compound and injected with acetic acid, and C represents the average number of writhing of the group of mice only injected with acetic acid (control).

[4] = test system: blood pressure; assay: Anti-hypertension activity (reduction of blood pressure); format: in vivo, rat (spontaneous hypertension); conditions: oral, 300 mg/kg
Experimental: Rats of spontaneous hypertension were orally administered with each of the present compounds as a solution or dispersion in distilled water at a dose rate of 300 mg/kg body weight. After 3 and 6 hours of the administration, the blood pressure of each rat was determined, and the difference between the above-determined value and the value just before the administeration was used as the index of the activity of reducing the blood pressure of the compound.

[5] = test system: pseudo-escaping reaction to tail pressure; assay: Analgetic activity against mechanical stimulation of pressure; format: in vivo, mouse (ICR female); conditions: oral, 1000 mg/kg
[6] = in vivo; conditions: mouse, in vivo, po, mice, 7 days observation, read-out: LD50, acute oral toxicity
[7] = test system: beta-lipoprotein; assay: Anti-hyperlipemia activity, beta-lipoprotein in blood; format: in vivo, rabbit (Japanese white male); conditions: oral, 300 mg/kg once
Experimental: (§2) Japanese white male rabbits were fed for 3 months with a solid diet containing 1% of cholesterol taken ad lib, and after confirming the raised lipid content of the serum of the rabbits, they were utilized as model animals suffering from experimental arteriosclerosis. Each of the present compounds was administered orally as a solution or dispersion in distilled water to the experimental animals of each group at a dose rate of 300 mg/kg once, and blood samples were taken at a predetermined time interval from the auricular vein of each animal. The content of cholesterol in the blood specimen was traced as the time passed by, with an enzymatic method, and the content of beta-lipoprotein in the same blood specimen was traced with a colorimetry. Each value in Table 7 is the difference between the level just before administration and the level after 3 or 6 hours of the administration.

[8] = test system: level of blood sugar; assay: Anti-hyperglycemia activity (reduction of blood sugar level); format: in vivo, rat (Wistar, streptozotocin); conditions: oral, 300 mg/kg
Experimental: A group of Wistar rats to which at first streptozotocin was interperitoneally administered at a rate of 60 mg/kg and of which the positivity of glycosuria was confirmed after a week of the administration and to which regular insulin was further administered and of which the reduction of levels of glucose in urine and blood was once confirmed, however, of which hyperglycemia and hyperglycosuria were again confirmed after a few days was chosen and used as model animals of glycosuria in the following test. After orally administering each of the present compounds to the model animals at a dose of 300 mg/kg body weight, as a solution or dispersion in distilled water, the blood was collected two times, respectively after 3 and 6 hours of the administration.

[9] = test system: total cholesterol; assay: Anti-hyperlipemia activity, total cholesterol in blood; format: in vivo, rabbit (Japanese white male); conditions: oral, 300 mg/kg once; for Reduction of cholesterol level after 3 hrs.: negative = raising
Experimental: as §2

[10] = test system: Sarcoma-180; assay: Anti-tumour activity against Sarcoma-180; format: in vivo, mouse (ICR-JCL); conditions: Mus musculus, Sarcoma-180, po, 600 h, 10 times every other day, tumour weight on 25th day, read-out: Antitumour activity, inhibiting rate (I.R.)
Experimental: Sarcoma-180 was transplanted into the axillary part of ICR-JCL mice at a rate of 1×10^6 cells/animal, and after 24 hours of transplantation, each of the present compounds as a solution or dispersion in sterilized physiological saline solution was orally administered to each of the transplanted mice 10 times every other day at a dose of 500 mg/kg/time. On 25th day of the transplantation, tumour node(s) were extirpated from all the mice to determine the weight of the tumour nodes.
Antitumour activity (activity of inhibiting the proliferation of the transplanted sarcoma) of each of the present compounds was derived by the following formula and shown in Table 6:
Antitumour activity (Inhibiting rate, I.R.)=(1-T/C)×100(%).
T represents the total weight of tumour nodes of the group of mice transplanted and administered with the present compound, and
C represents the total weight of tumour nodes of the group of mice transplanted, however, not administered with any agents.

[11] = test system: exudation; assay: Anti-exudation activity (air pouch, croton oil); format: in vivo, rat; conditions: 5 days; for inhibition in vivo at 1000 mg/kg/day: Rattus norvegicus, po, 144 h, read-out: I.R. against exudation
Experimental: Following the method of Baris et al. (1965), air was injected subcutaneously into the back of groups of rats, each group consisting of 6 animals to make an air pouch, and 0.5 ml of sesame oil containing 1% by weight of croton oil was injected into the air pouch. Each of the present compounds was orally administered forcibly to each of the groups of rats as a solution or dispersion in distilled water at a dose rate of 1000 mg/kg/day for continued five days. The amount of liquid exudated into the air pouch was measured on 6th day of the operation. The rate of inhibiting the exudation of the liquid was obtained by the same manner as in (5-2) and the results are shown also in Table 8.

[12] = test system: carrageenin edema; assay: Anti-Carrageenin edema activity; format: in vivo, rat; conditions: Rattus norvegicus, po, 1000 mg/kg once, read-out: I.R. against carrageenin edema
Experimental: After orally administering each of the present compounds forcibly to each group of rats, composed of 10 animals, as a solution or dispersion in distilled water at a dose of 1000 mg/kg once, 0.1 ml of an aqueous dispersion of 1% carrageenin in aqueous physiological saline solution was injected into the foot pad of the right hind leg of the administered animal following Van Arman et al. (1963). Thereafter, the thickness of the foot pad was measured at a time interval to find the rate of inhibiting of the swelling of the foot pad according to the following formula:
as §1
T means the average volume of the foot pad of the animals administered with one of the present compounds and carrageenin, and
C means that of the animal not administered with the present compound, however, administered with carrageenin.

Row | Structure (SMILES) | inhibition in vivo at 1000 mg/kg [1] | inhibition in vivo at 1000 mg/kg/day [2] | inhibition in vivo at 1000 mg/kg [3] | Reduced level of blood pressure after 3 hrs. [4] | Reduced level of blood pressure after 6 hrs. [4] | Pseudo-escapting reaction pressure [5] | Pseudo-escapting reaction time [5] | LD50 at 168 h [6] | Reduction of beta-lipoprotein level after 3 hrs. [7] | Reduction of beta-lipoprotein level after 6 hrs. [7] | Reduced level of blood sugar after 3 hrs. [8] | Reduced level of blood sugar after 6 hrs. [8] | Reduction of cholesterol level after 3 hrs. [9] | Reduction of cholesterol level after 6 hrs. [9] | inhibition in vivo at 500 mg/kg [10] | inhibition in vivo at 1000 mg/kg/day [11] | inhibition in vivo at 1000 mg/kg [12] | also measured
1 | C[C@@H]1OC(Nc2cccc(C(=O)OCc3ccccc3)c2)[C@@H](O)[C@H](O)[C@@H]1O (stereo partly drawn) [Compound 11, benzyl m-aminobenzoate-N-L-fucoside] | 29% | 4.4% | 17% | 21 mm Hg | 25 mm Hg | 74 mmHg | 35 s | 9700 mg/kg | 98 mg/dL | 109 mg/dL | 75 mg/dL | 88 mg/dL | -1 mg/dL | 50 mg/dL | 40% | 11% | 22.8% | –
2 | O=C(OC1CCCCC1)c1ccc(NC2OC[C@@H](O)[C@H](O)[C@H]2O)cc1 (stereo partly drawn) [Compound 18, cyclohexyl p-aminobenzoate-N-D-xyloside] | 62% | 12.2% | 33% | 22 mm Hg | 25 mm Hg | 94 mmHg | 39 s | > 15000 mg/kg | 148 mg/dL | 154 mg/dL | 121 mg/dL | 165 mg/dL | 2 mg/dL | 62 mg/dL | 62% | 25% | 19.7% | –
3 | C[C@@H]1OC(Nc2ccccc2C(=O)Oc2ccccc2)[C@H](O)[C@H](O)[C@H]1O (stereo partly drawn) [Compound 6, phenyl o-aminobenzoate-N-L-rhamnoside] | 69% | 20.5% | 37% | 22 mm Hg | 23 mm Hg | 98 mmHg | 43 s | > 15000 mg/kg | 152 mg/dL | 155 mg/dL | 121 mg/dL | 146 mg/dL | 4 mg/dL | 57 mg/dL | 44% | 19% | 7.6% | –
4 | O=C(Oc1ccccc1)c1ccc(NC2O[C@H](CO)[C@@H](O[C@H]3O[C@H](CO)[C@@H](O[C@H]4O[C@H](CO)[C@@H](O)[C@H](O)[C@H]4O)[C@H](O)[C@H]3O)[C@H](O)[C@H]2O)cc1 (stereo partly drawn) [Compound 10, phenyl p-aminobenzoate-N-maltotrioside] | 41% | 19.6% | 30% | 18 mm Hg | 18 mm Hg | 86 mmHg | 36 s | 12400 mg/kg | 106 mg/dL | 111 mg/dL | 99 mg/dL | 106 mg/dL | -5 mg/dL | 33 mg/dL | 39% | 7.5% | 6.6% | –
5 | C[C@@H]1OC(Nc2ccc(CC(=O)O)cc2)[C@H](O)[C@H](O)[C@H]1O (stereo partly drawn) [Compound 27, p-aminophenylacetic acid-N-L-rhamnoside] | – | 23.1% | 35% | 20 mm Hg | 20 mm Hg | 91 mmHg | 40 s | 13800 mg/kg | – | – | 91 mg/dL | 90 mg/dL | – | – | 43% | – | 5.2% | Reduction of beta-lipoprotein level after 3 hrs. ([7]; 300 mg/kg): 125 mg/dL; Reduction of beta-lipoprotein level after 6 hrs. ([7]; 300 mg/kg): 130 mg/dL; Reduction of cholesterol level after 3 hrs. ([9]; 300 mg/kg): 1 mg/dL; Reduction of cholesterol level after 6 hrs. ([9]; 300 mg/kg): 30 mg/dL; I.R. against exudation ([11]; oral, 1000 mg/kg/day): 16.5%
